In US20140162980A1, “NOVEL MICROBIOCIDAL DIOXIME ETHER DERIVATIVES” (SYNGENTA CROP PROTECTION LLC, priority 2010, published 2014):

Key:
[1] = tested on: Blumeria graminis f. sp. tritici (Erysiphe graminis f. sp. tritici); test: Blumeria graminis f. sp. tritici / wheat / leaf disc preventative (powdery mildew on wheat); assay type: in vivo; settings: foliar, wheat leaf segments cv. Kanzler, inoculated 1 day after application, assessed 6-8 days after application, read-out: control of Blumeria graminis (percent disease control compared to untreated)
Description: Blumeria Graminis f. Sp. Tritici (Erysiphe Graminis f. Sp. Tritici)/Wheat/Leaf Disc Preventative (Powdery Mildew on Wheat):
Wheat leaf segments cv. Kanzler were placed on agar in a 24-well plate and sprayed with the formulated test compound diluted in water at an application rate of 200 ppm. The leaf disks were inoculated by shaking powdery mildew infected plants above the test plates 1 day after application. The inoculated leaf disks were incubated at 20° C. and 60% relative humidity under a light regime of 24 h darkness followed by 12 h/12 h (dark/light) in a climate chamber and the activity of a compound was assessed as percent disease control compared to untreated when an appropriate level of disease damage appears on untreated check leaf segments (6-8 days after application). The following compounds gave at least 80% control of Blumeria graminis: […]

[2] = tested on: Puccinia recondita f. sp. tritici; test: Puccinia recondita f. sp. tritici / wheat / leaf disc curative (brown rust); assay type: in vivo; settings: foliar, 200 ppm applied 1 day after inoculation, wheat leaf segments cv Kanzler, assessed 6-8 days after application, read-out: control of Puccinia recondita f. sp. tritici, curative (percent disease control compared to untreated)
Description: Puccinia Recondita f. Sp. Tritici/Wheat/Leaf Disc Curative (Brown Rust): Wheat leaf segments cv Kanzler were placed on agar in 24-well plates. The leaf segments were inoculated with a spore suspension of the fungus. The plates were stored in darkness at 19° C. and 75% relative humidity. The formulated test compound diluted in water was applied at an application rate of 200 ppm 1 day after inoculation.

[3] = tested on: Puccinia recondita f. sp. tritici; test: Puccinia recondita f. sp. tritici / wheat / leaf disc preventative (brown rust); assay type: in vivo; settings: foliar, wheat leaf segments cv Kanzler, inoculated 1 day after application, assessed 7-9 days after application, read-out: control of Puccinia recondita f. sp. tritici, preventative (percent disease control compared to untreated)
Description: Puccinia Recondita f. Sp. Tritici/Wheat/Leaf Disc Preventative (Brown Rust): Wheat leaf segments cultivated variety (cv) Kanzler were placed on agar in 24-well plates and sprayed with formulated test compound diluted in water at an application rate of 200 ppm. The leaf disks were inoculated with a spore suspension of the fungus 1 day after application. The inoculated leaf segments were incubated at 19° C. and 75% relative humidity under a light regime of 12/12 h (light/dark) in a climate cabinet and the activity of a compound was assessed as percent disease control compared to untreated when an appropriate level of disease damage appears in untreated check leaf segments (7-9 days after application).

[4] = tested on: Phaeosphaeria nodorum (Septoria nodorum); test: Phaeosphaeria nodorum (Septoria nodorum) / wheat / leaf disc preventative (glume blotch); assay type: in vivo; settings: Parastagonospora nodorum, foliar, wheat leaf segments cv Kanzler, inoculated 2 days after application, assessed 5-7 days after application, read-out: control of Phaeosphaeria nodorum (percent disease control compared to untreated)
Description: Phaeosphaeria Nodorum (Septoria nodorum)/Wheat/Leaf Disc Preventative (Glume Blotch): Wheat leaf segments cv Kanzler were placed on agar in a 24-well plate and sprayed with formulated test compound diluted in water at an application rate of 200 ppm. The leaf disks are inoculated with a spore suspension of the fungus 2 days after application. The inoculated test leaf disks are incubated at 20° C. and 75% relative humidity under a light regime of 12/12 h (light/dark) in a climate cabinet and the activity of a compound is assessed as percent disease control compared to untreated when an appropriate level of disease damage appears in untreated check leaf disks (5-7 days after application).

Phytophthora infestans = test: whole plant or invertebrate; assay type: in vivo; settings: in Solanum lycopersicum, foliar, read-out: control of Phytophthora infestans (percent disease control compared to untreated)
Pyrenophora teres = Pyrenophora teres / barley / leaf disc preventative (net blotch); assay type: in vivo; settings: foliar, barley leaf segments cv Hasso, inoculated two days after application, assessed 5-7 days after application, read-out: control of Pyrenophora teres (disease control compared to untreated)
Description: Pyrenophora Teres/Barley/Leaf Disc Preventative (Net Blotch): Barley leaf segments cv Hasso are placed on agar in a 24-well plate and sprayed with formulated test compound diluted in water at an application rate of 200 ppm. The leaf segments are inoculated with a spore suspension of the fungus two days after application of the test solution. The inoculated leaf segments are incubated at 20° C. and 65% relative humidity under a light regime of 12/12 h (light/dark) in a climate cabinet and the activity of a compound is assessed as disease control compared to untreated when an appropriate level of disease damage appears in untreated check leaf segments (5-7 days after application).

[5] = tested on: Botryotinia fuckeliana (Botrytis cinerea); test: Botryotinia fuckeliana (Botrytis cinerea) / liquid culture (gray mould); assay type: cell-based; settings: Vogels broth, 24° C., 3-4 days after application, read-out: control of Botryotinia fuckeliana (inhibition of growth, photometrically)
Description: Botryotinia Fuckeliana (Botrytis cinerea)/Liquid Culture (Gray Mould): Conidia of the fungus from cryogenic storage were directly mixed into nutrient broth (Vogels broth). After placing a DMSO solution of test compound into a 96-well microtiter plate at an application rate 200 ppm, the nutrient broth containing the fungal spores was added. The test plates were incubated at 24° C. and the inhibition of growth was determined photometrically 3-4 days after application.

Plasmopara viticola = test: whole plant or invertebrate; assay type: in vivo; settings: foliar, read-out: control of Plasmopara viticola (percent disease control compared to untreated)
Pythium ultimum = Pythium ultimum / liquid culture (seedling damping off); assay type: cell-based; settings: Globisporangium ultimum, PDB potato dextrose broth, 24° C., 2-3 days after application, read-out: control of Pythium ultimum (inhibition of growth, photometrically)
Description: Pythium Ultimum/Liquid Culture (Seedling Damping Off): Mycelia fragments and oospores of a newly grown liquid culture of the fungus were directly mixed into nutrient broth (PDB potato dextrose broth). After placing a DMSO solution of test compound into a 96 well microtiter plate at an application rate 200 ppm, the nutrient broth containing the fungal mycelia/spore mixture was added. The test plates were incubated at 24° C. and the inhibition of growth was determined photometrically 2-3 days after application.

[6] = tested on: Thanatephorus cucumeris (Rhizoctonia solani); test: Thanatephorus cucumeris (Rhizoctonia solani) / liquid culture (foot rot, damping-off); assay type: cell-based; settings: PDB potato dextrose broth, 24° C., 3-4 days after application, read-out: control of Thanatephorus cucumeris (inhibition of growth, photometrically)
Description: Thanatephorus Cucumeris (Rhizoctonia solani)/Liquid Culture (Foot Rot, Damping-Off): Mycelia fragments of a newly grown liquid culture of the fungus are directly mixed into nutrient broth (PDB potato dextrose broth). After placing a DMSO solution of the test compounds into a 96-well microtiter plate at an application rate 200 ppm, the nutrient broth containing the fungal material was added. The test plates were incubated at 24° C. and the inhibition of growth was determined photometrically 3-4 days after application.

Alternaria solani = Alternaria solani / tomato / leaf disc (early blight); assay type: in vivo; settings: foliar, tomato leaf disks cv. Baby, inoculated 2 days after application, assessed 5-7 days after application, read-out: control of Alternaria solani (percent disease control compared to untreated)
Description: Alternaria Solani/Tomato/Leaf Disc (Early Blight): Tomato leaf disks cv. Baby are placed on agar in multiwell plates (24-well format) and sprayed with the formulated test compound diluted in water at an application rate of 200 ppm. The leaf disks are inoculated with a spore suspension of the fungus 2 days after application. The inoculated leaf disks are incubated at 23° C./21° C.

[7] = tested on: Magnaporthe grisea (Pyricularia oryzae); test: whole plant or invertebrate; assay type: in vivo; settings: foliar, read-out: control of Magnaporthe grisea (percent disease control compared to untreated)

Cc1ccc2c(n1)/C(=N/OCC(CO/N=C1\CCCc3ccc(C)nc31)c1ccccc1)CCC2 (stereo not shown) [P.04]
≥ 80%: pest or weed control at 200 ppm [1] | pest or weed control at 200 ppm [2] | pest or weed control at 200 ppm [3] | pest or weed control at 200 ppm [4] | pest or weed control at 200 ppm (Phytophthora infestans) | pest or weed control at 200 ppm (Pyrenophora teres) | inhibition at 200 ppm [5]

Cc1ccc2c(n1)/C(=N/OCCCO/N=C1\CCCc3c(-c4ccccc4)cc(C)nc31)CCC2 [P.31]
≥ 80%: pest or weed control at 200 ppm [1] | pest or weed control at 200 ppm [2] | pest or weed control at 200 ppm (Plasmopara viticola) | pest or weed control at 200 ppm [3] | pest or weed control at 200 ppm [4] | inhibition at 200 ppm (Pythium ultimum) | inhibition at 200 ppm [6] | pest or weed control at 200 ppm (Pyrenophora teres) | pest or weed control at 200 ppm (Alternaria solani) | inhibition at 200 ppm [5]

COc1ccc2c(n1)/C(=N/OCC1(CO/N=C3\CCCc4ccc(OC)nc43)CC1)CCC2 [P.13]
≥ 80%: pest or weed control at 200 ppm [1] | pest or weed control at 200 ppm [2] | pest or weed control at 200 ppm [3] | pest or weed control at 200 ppm [4] | inhibition at 200 ppm [6] | pest or weed control at 200 ppm (Pyrenophora teres) | inhibition at 200 ppm [5]

Cc1ccc2c(n1)/C(=N/OCC(C)(C)CO/N=C1\CCCc3cccnc31)CCC2 [P.23]
≥ 80%: pest or weed control at 200 ppm [1] | pest or weed control at 200 ppm [2] | pest or weed control at 200 ppm [3] | pest or weed control at 200 ppm [4] | pest or weed control at 200 ppm (Phytophthora infestans) | inhibition at 200 ppm (Pythium ultimum) | pest or weed control at 200 ppm (Pyrenophora teres)

Cc1ccc2c(n1)/C(=N/OCC(C)CO/N=C1\CCCc3ccc(C)nc31)CCC2 (stereo not shown) [P.09]
≥ 80%: pest or weed control at 200 ppm [1] | pest or weed control at 200 ppm [2] | pest or weed control at 200 ppm [3] | pest or weed control at 200 ppm [4] | pest or weed control at 200 ppm (Phytophthora infestans) | inhibition at 200 ppm (Pythium ultimum) | pest or weed control at 200 ppm (Pyrenophora teres) | pest or weed control at 200 ppm (Alternaria solani) | inhibition at 200 ppm [5]

Cc1ccc2c(n1)/C(=N/OCC(C)(C)CO/N=C1\CCCc3ccc(C)nc31)CCC2 [P.02]
≥ 80%: pest or weed control at 200 ppm [1] | pest or weed control at 200 ppm [2] | pest or weed control at 200 ppm [3] | pest or weed control at 200 ppm [4] | pest or weed control at 200 ppm (Phytophthora infestans) | inhibition at 200 ppm (Pythium ultimum) | inhibition at 200 ppm [6] | pest or weed control at 200 ppm (Pyrenophora teres) | inhibition at 200 ppm [5]

CCOc1cc(C)nc2c1CCC/C2=N\OCCCO/N=C1\CCCc2ccc(C)nc21 [P.32]
≥ 80%: pest or weed control at 200 ppm [1] | pest or weed control at 200 ppm (Plasmopara viticola) | pest or weed control at 200 ppm [7] | pest or weed control at 200 ppm [3] | pest or weed control at 200 ppm [4] | pest or weed control at 200 ppm (Phytophthora infestans) | pest or weed control at 200 ppm (Pyrenophora teres) | inhibition at 200 ppm [5]

Cc1ccc2c(n1)/C(=N/OC[Si](C)(C)CO/N=C1\CCCc3ccc(C)nc31)CCC2 [P.20]
≥ 80%: pest or weed control at 200 ppm [1] | pest or weed control at 200 ppm [2] | pest or weed control at 200 ppm [3] | pest or weed control at 200 ppm [4] | inhibition at 200 ppm (Pythium ultimum) | inhibition at 200 ppm [6] | pest or weed control at 200 ppm (Pyrenophora teres) | pest or weed control at 200 ppm (Alternaria solani) | inhibition at 200 ppm [5]

Cc1ccc2c(n1)/C(=N/OCCCO/N=C1\CCCc3ccc(C)nc31)CCC2 [P.05]
≥ 80%: pest or weed control at 200 ppm [1] | pest or weed control at 200 ppm [2] | pest or weed control at 200 ppm [3] | pest or weed control at 200 ppm [4] | pest or weed control at 200 ppm (Phytophthora infestans) | inhibition at 200 ppm (Pythium ultimum) | pest or weed control at 200 ppm (Pyrenophora teres) | pest or weed control at 200 ppm (Alternaria solani) | inhibition at 200 ppm [5]

Cc1ccc2c(n1)/C(=N/OCC(C)(C)CO/N=C1\CCCc3c(N4CCCC4)cc(C)nc31)CCC2 [P.41]
≥ 80%: pest or weed control at 200 ppm [1] | pest or weed control at 200 ppm [4] | inhibition at 200 ppm [6] | pest or weed control at 200 ppm (Pyrenophora teres) | inhibition at 200 ppm [5]

C=C(CO/N=C1\CCCc2ccc(C)nc21)CO/N=C1\CCCc2ccc(C)nc21 [P.07]
≥ 80%: pest or weed control at 200 ppm [1] | pest or weed control at 200 ppm [2] | pest or weed control at 200 ppm [3] | pest or weed control at 200 ppm [4] | inhibition at 200 ppm (Pythium ultimum) | pest or weed control at 200 ppm (Pyrenophora teres) | pest or weed control at 200 ppm (Alternaria solani) | inhibition at 200 ppm [5]
